Patent EP4806890A1, “CRYSTALLINE COMPOUND OR BASIC SALT THEREOF, PREPARATION METHOD THEREFOR, AND USE THEREOF” (Abbisko Therapeutics Co., Ltd., priority 2023, dated 2025)

Legend:
[1] = Later pharmaceutical research on the trifluoroacetate freeze-dried amorphous compound of WO2019149183A1 (solid-state properties); format: physicochemical
PD-1/PD-L1 = PD-1/PD-L1 (Homo sapiens, UniProt Q9NZQ7); conditions: statement of the background, WO2019149183A1; cited from earlier work
T cells = conditions: statement of the background, WO2019149183A1; cited from earlier work
[2] = Solubility determination (equilibrium solubility, 24 hrs stirring at room temperature, HPLC); format: physicochemical; conditions: for Equilibrium solubility: target concentration 2000 µg/mL, 24 hrs; for pH24 hrs: pH of the filtrate after 24 hrs; for solubility (in words): various pH conditions, buffers and biological medium solutions
Description: (§1) The stability and solubility of the crystalline free form of the compound of formula (I) or the basic salt thereof of the present application were determined by HPLC.
The desired amount of the compound was weighed into a glass vial, and the desired amount of a vehicle was added. A stir bar was added to the vial, and the mixture was stirred at room temperature for 24 hrs. After 24 hrs, the appearance of the sample was observed. An appropriate amount of the sample was filtered through a PVDF 0.45 µm filter membrane, and the filtrate was collected. The pH value of the filtrate was determined, and the sample was diluted with MeOH. The diluted sample was injected into an HPLC system to determine the concentration.

[3] = Stability determination (thermal stability and photostability, HPLC purity, appearance, XRPD); format: physicochemical; conditions: for physical and chemical stability (in words): 50 °C/75% RH (open), 80 °C for 7 days and photostress for 10 days; for XRPD: crystalline form found
Description: as §1
An appropriate amount of the sample was placed in a vial and left to stand at 50 °C, 80 °C or 50 °C & 75% RH (open) for 7 days to evaluate thermal stability. An appropriate amount of the sample was placed in a transparent vial, […] evaluation under conditions of overall near-ultraviolet energy of 1.2 * 10^6 Lux·hr and no less than 200 W·hr/m2.

[4] = Hygroscopic behavior test by dynamic vapor sorption (DVS); format: physicochemical; conditions: for hygroscopicity (in words): DVS, 25 °C
Source text: The experimental method of characterizing the crystalline free form of the compound of formula (I) or the basic salt thereof using dynamic vapor sorption (DVS) is as follows: a small amount of the crystalline sample was placed in a precision sample tray that was compatible with the instrument; after the sample was loaded, the sample tray was placed into the instrument for analysis. In this patent, the instruments used for dynamic vapor sorption were all the DVS Intrinsic plus model, and the following experimental parameters were set: nitrogen was used as the carrier gas, a constant temperature of 25 °C was set, the rate of mass percentage change over a unit of time (dm/dt) = 0.002%/min was used as a criterion for determining if equilibrium is reached, and the program humidity change cycle was set to 50-95-0-95-50% RH; within the range of 0-90% RH, a change of 10% RH was taken as a step, and within the range of 90% RH-95% RH, a change of 5% RH was taken as a step.
In the present invention, the hygroscopic weight increases (hygroscopic weight increase/weight before hygroscopy * 100%) of various crystalline forms under various relative humidity conditions were determined using the dynamic vapor sorption method, and the hygroscopicity of different crystalline compounds was evaluated.

[5] = pH 4.7, 50 mM acetic acid buffer
[6] = pH 6.8, 50 mM phosphoric acid buffer
[7] = Aluminum foil light exposure control, 9.2 days
[8] = Transparent light exposure, 9.2 days
[9] = Relative humidity 0.0 % at 25 °C
[10] = Relative humidity 10.0 % at 25 °C
[11] = Relative humidity 20.0 % at 25 °C
[12] = Relative humidity 30.0 % at 25 °C
[13] = Relative humidity 40.0 % at 25 °C
[14] = Relative humidity 50.0 % at 25 °C
[15] = Relative humidity 60.0 % at 25 °C
[16] = Relative humidity 70.0 % at 25 °C
[17] = Relative humidity 80.0 % at 25 °C
[18] = Relative humidity 90.0 % at 25 °C

Chain of PD-1/PD-L1 (Q9NZQ7 19-238 limits assumed): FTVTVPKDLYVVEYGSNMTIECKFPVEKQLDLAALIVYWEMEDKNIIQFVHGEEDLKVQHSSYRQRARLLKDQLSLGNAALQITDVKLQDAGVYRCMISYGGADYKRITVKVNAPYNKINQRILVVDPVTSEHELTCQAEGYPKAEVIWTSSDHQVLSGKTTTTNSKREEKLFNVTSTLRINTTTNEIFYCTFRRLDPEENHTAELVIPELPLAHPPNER

Cc1c(NC(=O)c2cc(C3CC3)c(CN3CCCC[C@H]3C(=O)O)cn2)cccc1-c1cccc(NC(=O)c2cc(C3CC3)c(CN3CCCC[C@H]3C(=O)O)cn2)c1C [compound of formula (I), (2S,2'S)-1,1'-(((((2,2'-dimethyl-[1,1'-biphenyl]-3,3'-diyl)bis(azanediyl))bis(carbonyl))bis(4-cyclopropylpyridine-6,3-diyl))bis(methylene))bis(piperidine-2-carboxylic acid)]
hygroscopicity (in words) [1]: very hygroscopic | solubility (in words) [1]: poor solubility | inhibitory effect on the protein interaction of PD-1/PD-L1 (PD-1/PD-L1): strong inhibitory effect | activation of T cells at the cellular level (T cells): enhance or restore the activation of T cells

Cc1c(NC(=O)c2cc(C3CC3)c(CN3CCCC[C@H]3C(=O)O)cn2)cccc1-c1cccc(NC(=O)c2cc(C3CC3)c(CN3CCCC[C@H]3C(=O)O)cn2)c1C [free-form crystalline form D, (2S,2'S)-1,1'-(((((2,2'-dimethyl-[1,1'-biphenyl]-3,3'-diyl)bis(azanediyl))bis(carbonyl))bis(4-cyclopropylpyridine-6,3-diyl))bis(methylene))bis(piperidine-2-carboxylic acid)]
Equilibrium solubility ([2]; FaSSGF): 87.01 µg/mL | Equilibrium solubility ([2]; FaSSIF): 78.44 µg/mL | Equilibrium solubility ([2]; FeSSIF): 433.75 µg/mL | Equilibrium solubility ([2]; Water, room temperature): 51.93 µg/mL | Equilibrium solubility ([2]; pH 1.2, HCl 100 mM): 281.84 µg/mL | Equilibrium solubility [2, 5]: 47.41 µg/mL | Equilibrium solubility [2, 6]: 42.11 µg/mL | pH24 hrs ([2]; FaSSGF): 1.57 | pH24 hrs ([2]; FaSSIF): 6.43 | pH24 hrs ([2]; FeSSIF): 4.94 | pH24 hrs ([2]; Water): 5.82 | pH24 hrs ([2]; pH 1.2, HCl 100 mM): 1.16 | pH24 hrs [2, 5]: 4.73 | pH24 hrs [2, 6]: 6.90 | solubility (in words) [2]: significantly improved solubility | physical and chemical stability (in words) ([3]; 50 °C): extremely high physical and chemical stability | Appearance ([3]; 50 °C, 7 days): White powder | Purity (%) ([3]; 50 °C, 7 days): 98.13% | Appearance ([3]; 50 °C/75%RH, 7 days): White powder | Purity (%) ([3]; 50 °C/75%RH, 7 days): 98.24% | Appearance ([3]; 80 °C, 7 days): White powder | Purity (%) ([3]; 80 °C, 7 days): 97.22% | Appearance [3, 7]: White powder | Purity (%) [3, 7]: 98.26% | Appearance ([3]; Initial, 0 days): White powder | Purity (%) ([3]; Initial, 0 days): 98.17% | Appearance [3, 8]: White powder | Purity (%) [3, 8]: 96.06% | XRPD ([3]; 50 °C, 7 days): Free-form crystalline form D | XRPD ([3]; 50 °C/75%RH, 7 days): Free-form crystalline form D | XRPD ([3]; 80 °C, 7 days): Free-form crystalline form D | XRPD [3, 7]: Free-form crystalline form D | XRPD ([3]; Initial, 0 days): Free-form crystalline form D | XRPD [3, 8]: Free-form crystalline form D | hygroscopicity (in words) [4]: moderate hygroscopicity | hygroscopicity (in words) ([4]; listed as crystalline form D): moderately hygroscopic | Hygroscopic weight increase (%) [4, 9]: 0.00% | Hygroscopic weight increase (%) [4, 10]: 0.40% | Hygroscopic weight increase (%) [4, 11]: 0.85% | Hygroscopic weight increase (%) [4, 12]: 1.34% | Hygroscopic weight increase (%) [4, 13]: 1.85% | Hygroscopic weight increase (%) [4, 14]: 2.30% | Hygroscopic weight increase (%) [4, 15]: 2.76% | Hygroscopic weight increase (%) [4, 16]: 3.25% | Hygroscopic weight increase (%) [4, 17]: 3.79% | Hygroscopic weight increase (%) [4, 18]: 4.58% | crystalline form changes after DVS testing [4]: no crystalline form changes

Cc1c(NC(=O)c2cc(C3CC3)c(CN3CCCC[C@H]3C(=O)O)cn2)cccc1-c1cccc(NC(=O)c2cc(C3CC3)c(CN3CCCC[C@H]3C(=O)O)cn2)c1C [free-form crystalline form F, (2S,2'S)-1,1'-(((((2,2'-dimethyl-[1,1'-biphenyl]-3,3'-diyl)bis(azanediyl))bis(carbonyl))bis(4-cyclopropylpyridine-6,3-diyl))bis(methylene))bis(piperidine-2-carboxylic acid)]
Equilibrium solubility ([2]; FaSSGF): 117.15 µg/mL | Equilibrium solubility ([2]; FaSSIF): 306.56 µg/mL | Equilibrium solubility ([2]; FeSSIF): 1723.16 µg/mL | Equilibrium solubility ([2]; Water, room temperature): 69.47 µg/mL | Equilibrium solubility ([2]; pH 1.2, HCl 100 mM): 244.49 µg/mL | Equilibrium solubility [2, 5]: 67.33 µg/mL | Equilibrium solubility [2, 6]: 61.01 µg/mL | pH24 hrs ([2]; FaSSGF): 1.58 | pH24 hrs ([2]; FaSSIF): 6.42 | pH24 hrs ([2]; FeSSIF): 4.99 | pH24 hrs ([2]; Water): 5.52 | pH24 hrs ([2]; pH 1.2, HCl 100 mM): 1.15 | pH24 hrs [2, 5]: 4.68 | pH24 hrs [2, 6]: 6.93 | solubility (in words) [2]: extremely significantly improved solubility | physical and chemical stability (in words) ([3]; 50 °C): extremely high physical and chemical stability | Appearance ([3]; 50 °C, 11 days): White powder | Purity (%) ([3]; 50 °C, 11 days): 99.36% | Appearance ([3]; 50 °C/75%RH, 11 days): White powder | Purity (%) ([3]; 50 °C/75%RH, 11 days): 99.36% | Appearance ([3]; 80 °C, 11 days): White powder | Purity (%) ([3]; 80 °C, 11 days): 99.22% | Appearance [3, 7]: White powder | Purity (%) [3, 7]: 99.39% | Appearance ([3]; Initial, 0 days): White powder | Purity (%) ([3]; Initial, 0 days): 99.44% | Appearance [3, 8]: White powder | Purity (%) [3, 8]: 99.43% | XRPD ([3]; 50 °C, 11 days): Free-form crystalline form F | XRPD ([3]; 50 °C/75%RH, 11 days): Free-form crystalline form F | XRPD ([3]; 80 °C, 11 days): Free-form crystalline form F | XRPD [3, 7]: Free-form crystalline form F | XRPD ([3]; Initial, 0 days): Free-form crystalline form F | XRPD [3, 8]: Free-form crystalline form F | hygroscopicity (in words) [4]: moderate hygroscopicity | hygroscopicity (in words) ([4]; listed as crystalline form F): moderately hygroscopic | Hygroscopic weight increase (%) [4, 9]: 0.00% | Hygroscopic weight increase (%) [4, 10]: 0.18% | Hygroscopic weight increase (%) [4, 11]: 0.38% | Hygroscopic weight increase (%) [4, 12]: 0.60% | Hygroscopic weight increase (%) [4, 13]: 0.84% | Hygroscopic weight increase (%) [4, 14]: 1.14% | Hygroscopic weight increase (%) [4, 15]: 1.54% | Hygroscopic weight increase (%) [4, 16]: 2.04% | Hygroscopic weight increase (%) [4, 17]: 2.55% | Hygroscopic weight increase (%) [4, 18]: 3.28% | crystalline form changes after DVS testing [4]: no crystalline form changes
